In PubChem BioAssay AID330 (DTP/NCI, 2004):
Where “and” joins values, the source holds several entries; their conditions need not be identical. Equal entries are not always repeated. Toxic doses and inconclusive results are not listed. How the source made its calls: active means survival T/C of 150% or more; inactive means T/C below 125% in these data.

Tested on: P388 leukemia ip, CD2F1 mice, survival T/C
Test: NCI In Vivo Anticancer Drug Screen. Data for tumor model P388 Leukemia (intraperitoneal) in CD2F1 (CDF1) mice
Conditions: endpoint: median survival time, higher = longer survival
How it was run: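 Mice carrying the transplanted tumor received test compound or vehicle. Survival was recorded in each group, and the value is the treated-group measurement divided by that of the vehicle-treated control group.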

[1] = dose: 50.0 mg/kg/injection, schedule: Q04DX003 (ip), vehicle: saline with Tween-80
[2] = dose: 6.25 mg/kg/injection, schedule: Q01DX009 (ip), vehicle: saline
[3] = dose: 12.5 mg/kg/injection, schedule: Q01DX009 (ip), vehicle: saline
[4] = dose: 25.0 mg/kg/injection, schedule: Q01DX009 (ip), vehicle: saline
[5] = dose: 25.0 mg/kg/injection, schedule: Q04DX003 (ip), vehicle: saline
[6] = dose: 50.0 mg/kg/injection, schedule: Q04DX003 (ip), vehicle: saline
[7] = dose: 60.0 mg/kg/injection, schedule: Q01DX005 (ip), vehicle: saline with Tween-80
[8] = dose: 120.0 mg/kg/injection, schedule: Q01DX005 (ip), vehicle: saline with Tween-80
[9] = dose: 240.0 mg/kg/injection, schedule: Q01DX005 (ip), vehicle: saline with Tween-80
[10] = dose: 50.0 mg/kg/injection, schedule: Q01DX009 (ip), vehicle: saline with Tween-80
[11] = dose: 100.0 mg/kg/injection, schedule: Q01DX009 (ip), vehicle: saline with Tween-80
[12] = dose: 200.0 mg/kg/injection, schedule: Q01DX009 (ip), vehicle: saline with Tween-80
[13] = dose: 60.0 mg/kg/injection, schedule: Q01DX005 (ip), vehicle: Klucel (hydroxypropylcellulose) (HPC)
[14] = dose: 50.0 mg/kg/injection, schedule: Q01DX009 (ip), vehicle: saline
[15] = dose: 50.0 mg/kg/injection, schedule: Q01DX005 (ip), vehicle: Klucel (hydroxypropylcellulose) (HPC)
[16] = dose: 100.0 mg/kg/injection, schedule: Q01DX005 (ip), vehicle: Klucel (hydroxypropylcellulose) (HPC)
[17] = dose: 100.0 mg/kg/injection, schedule: Q04DX003 (ip), vehicle: saline
[18] = dose: 400.0 mg/kg/injection, schedule: Q04DX003 (ip), vehicle: saline
[19] = dose: 12.5 mg/kg/injection, schedule: Q01DX009 (ip), vehicle: saline with Tween-80
[20] = dose: 25.0 mg/kg/injection, schedule: Q01DX009 (ip), vehicle: saline with Tween-80
[21] = dose: 200.0 mg/kg/injection, schedule: Q04DX003 (ip), vehicle: saline

Measured: T/C

N#CC(=C1C=CC(=NO)C=C1)c1ccc(Cl)cc1
inactive: [1] 91 % of control | dose: 100.0 mg/kg/injection, schedule: Q04DX003 (ip), vehicle: saline with Tween-80 100 % of control and 92 % of control | dose: 200.0 mg/kg/injection, schedule: Q04DX003 (ip), vehicle: saline with Tween-80 98 % of control and 105 % of control | dose: 400.0 mg/kg/injection, schedule: Q04DX003 (ip), vehicle: saline with Tween-80 117 % of control

Cn1cc(C(=O)O)c(=O)c2ccc(/C=C/c3ccc([N+](=O)[O-])o3)nc21
inactive: dose: 3.12 mg/kg/injection, schedule: Q01DX009 (ip), vehicle: saline 92 % of control | [2] 97 % of control | [3] 111 % of control | [4] 103 % of control

CCCCOC(=O)c1ccc(NC(=O)Nc2ccccc2OC)cc1
inactive: dose: 25.0 mg/kg/injection, schedule: Q04DX003 (ip), vehicle: saline with Tween-80 91 % of control | [1] 87 % of control

CCOC(=O)CC1CC2c3cc(OC)c(OC)cc3CCN2CC1CC (stereo unspecified)
inactive: dose: 12.5 mg/kg/injection, schedule: Q01DX009 (ip), vehicle: Klucel (hydroxypropylcellulose) (HPC) 108 % of control | dose: 25.0 mg/kg/injection, schedule: Q01DX009 (ip), vehicle: Klucel (hydroxypropylcellulose) (HPC) 114 % of control | dose: 50.0 mg/kg/injection, schedule: Q01DX009 (ip), vehicle: Klucel (hydroxypropylcellulose) (HPC) 100 % of control and 114 % of control

Cc1nc(Cl)c2cnccn12
inactive: [5] 100 % of control | [6] 100 % of control

N/C(=N\C(=O)OCc1ccccc1)N(CCCC(NC(=O)OCc1ccccc1)C(=O)O)C(=O)OCc1ccccc1 (stereo unspecified)
inactive: [7] 104 % of control | [8] 87 % of control | [9] 88 % of control

CN1CCC(O)(C(O)(c2ccccc2)c2ccccc2)CC1
inactive: [7] 96 % of control | [8] 100 % of control | [9] 103 % of control

CCCCOCCOS(=O)(=O)c1ccc(C)cc1
inactive: [10] 92 % of control | [11] 96 % of control | [12] 106 % of control

[N-]=[N+]=Nc1cc(Cl)nnc1-c1ccccc1
inactive: dose: 15.0 mg/kg/injection, schedule: Q01DX005 (ip), vehicle: Klucel (hydroxypropylcellulose) (HPC) 107 % of control | dose: 30.0 mg/kg/injection, schedule: Q01DX005 (ip), vehicle: Klucel (hydroxypropylcellulose) (HPC) 105 % of control | [13] 100 % of control

CCn1c(=O)c2c(ncn2C)n(C)c1=O
inactive: [2] 100 % of control | [3] 101 % of control | [4] 100 % of control | [14] 100 % of control

CCCCCCC1NC1Cc1ccccc1 (stereo unspecified)
inactive: dose: 4.5 mg/kg/injection, schedule: Q01DX009 (ip), vehicle: saline with Tween-80 115 % of control | dose: 9.0 mg/kg/injection, schedule: Q01DX009 (ip), vehicle: saline with Tween-80 111 % of control | dose: 18.0 mg/kg/injection, schedule: Q01DX009 (ip), vehicle: saline with Tween-80 110 % of control

CC1=Nc2c(C)noc2CC(c2ccccc2O)C1 (stereo unspecified)
inactive: [15] 101 % of control | [16] 106 % of control

O=C(Nc1ccc(C2=NCCN2)cc1)c1cc(C(=O)Nc2ccc(C3=NCCN3)cc2)cc([N+](=O)[O-])c1
inactive: dose: 167.0 mg/kg/injection, schedule: Q01DX010 (ip), vehicle: saline 104 % of control | dose: 250.0 mg/kg/injection, schedule: Q01DX010 (ip), vehicle: saline 100 % of control | dose: 375.0 mg/kg/injection, schedule: Q01DX010 (ip), vehicle: saline 100 % of control | dose: 512.0 mg/kg/injection, schedule: Q01DX010 (ip), vehicle: saline 95 % of control

Cc1[nH]c(=O)nc(Nc2ccc(Cl)cc2)c1C(=O)N1CCN(CCO)CC1
inactive: [7] 93 % of control | [8] 90 % of control and 93 % of control | [9] 102 % of control and 93 % of control

COc1c(Br)c2c(c([N+](=O)[O-])c1OC)C(=O)OC2
inactive: dose: 25.0 mg/kg/injection, schedule: Q01DX005 (ip), vehicle: Klucel (hydroxypropylcellulose) (HPC) 103 % of control | [15] 96 % of control | [16] 96 % of control | dose: 200.0 mg/kg/injection, schedule: Q01DX005 (ip), vehicle: Klucel (hydroxypropylcellulose) (HPC) 104 % of control

COc1ccc2c(c1OC)C(=O)OC2c1cc(Br)c(O)c(C2OC(=O)c3c2ccc(OC)c3OC)c1 (stereo unspecified)
inactive: [10] 90 % of control | [11] 86 % of control | [17] 87 % of control | [18] 87 % of control

NCC(S)c1ccc(Cl)cc1 (stereo unspecified)
inactive: dose: 12.5 mg/kg/injection, schedule: Q01DX001 (ip), vehicle: saline 100 % of control | dose: 25.0 mg/kg/injection, schedule: Q01DX001 (ip), vehicle: saline 100 % of control | dose: 50.0 mg/kg/injection, schedule: Q01DX001 (ip), vehicle: saline 100 % of control

[B-][N+]1(C)CC[N+]([B-])(C)CC1 (stereo unspecified)
inactive: dose: 5.0 mg/kg/injection, schedule: Q01DX009 (ip), vehicle: saline with Tween-80 90 % of control | dose: 10.0 mg/kg/injection, schedule: Q01DX009 (ip), vehicle: saline with Tween-80 95 % of control | dose: 20.0 mg/kg/injection, schedule: Q01DX009 (ip), vehicle: saline with Tween-80 90 % of control

Cc1ccc(N=C(N=C(NC(=O)c2ccccc2)c2ccccc2)c2ccccc2)cc1
inactive: [19] 99 % of control | [20] 97 % of control | [10] 89 % of control and 93 % of control (2×) | [12] 95 % of control

Cc1cc(=O)oc2c(-c3ccccc3)n[nH]c(=O)c12
inactive: [13] 104 % of control | dose: 120.0 mg/kg/injection, schedule: Q01DX005 (ip), vehicle: Klucel (hydroxypropylcellulose) (HPC) 95 % of control | dose: 240.0 mg/kg/injection, schedule: Q01DX005 (ip), vehicle: Klucel (hydroxypropylcellulose) (HPC) 97 % of control

CC(=O)Nc1ccc(C(=O)c2ccccc2)cc1
inactive: [5] 102 % of control | [6] 103 % of control | [17] 100 % of control | [21] 103 % of control

CNc1ncn(-c2c(C)cccc2C)c(=O)n1
inactive: [7] 101 % of control and 106 % of control | [8] 108 % of control | [9] 117 % of control

CCCCCOc1ccc(C(=O)/C(Br)=C/C(=O)O)cc1
inactive: [19] 104 % of control | [20] 109 % of control | [10] 123 % of control

CCCCCCCCCCC[N+]1([O-])CCOCC1
inactive: [3] 101 % of control | [4] 99 % of control | [14] 99 % of control and 89 % of control

CCOC(=O)C1OC1(C)c1ccccc1 (stereo unspecified)
inactive: [10] 102 % of control | [11] 100 % of control | [12] 107 % of control

CC1(C)COC(=O)/C1=C1\SC(=O)NC1=O
inactive: [17] 95 % of control | [21] 94 % of control | [18] 102 % of control

CC(SC(C)C(=O)N/N=C/c1c[nH]c2ccccc12)C(=O)N/N=C\c1c[nH]c2ccccc12 (stereo unspecified)
inactive: dose: 50.0 mg/kg/injection, schedule: Q01DX005 (ip), vehicle: saline with Tween-80 92 % of control | dose: 100.0 mg/kg/injection, schedule: Q01DX005 (ip), vehicle: saline with Tween-80 93 % of control | dose: 200.0 mg/kg/injection, schedule: Q01DX005 (ip), vehicle: saline with Tween-80 93 % of control
